Reference: ChEMBL document CHEMBL6120978, “Anticancer activity of salinomycin quaternary phosphonium salts” (Eur J Med Chem, 2025)
Activity calls are given as the source filed them. The calls are words filed in the database; no cut-off is given here.

How the values were obtained:
SW480 = test: Cytotoxicity against human SW480 cells incubated for 72 hrs by MTT assay; assay type: functional, cell-based; details: SW480, 72 h
SW-620 = test: Cytotoxicity against human SW620 cells incubated for 72 hrs by MTT assay; assay type: functional, cell-based; details: SW-620, 72 h
PC-3 = test: Cytotoxicity against human PC-3 cells incubated for 72 hrs by MTT assay; assay type: functional, cell-based; details: PC-3, 72 h
MDA-MB-231 = test: Cytotoxicity against human MDA-MB-231 cells incubated for 72 hrs by MTT assay; assay type: functional, cell-based; details: MDA-MB-231, 72 h
A549 [1] = test: Cytotoxicity against human A549 cells incubated for 72 hrs by MTT assay; assay type: functional, cell-based; details: A549, 72 h
[2] = Cytotoxicity against human HaCaT cells incubated for 72 hrs by MTT assay; assay type: toxicity, cell-based
[3] = Cytotoxicity against chinese hamster V79 cells incubated for 72 hrs by MTT assay; assay type: toxicity, cell-based, Cricetulus griseus
[4] = Selectivity index, ratio of IC50 for cytotoxicity against human HaCaT cells to IC50 for cytotoxicity against human SW480 cells; assay type: toxicity, cell-based; details: HaCaT cells versus SW480 cells, read-out: Ratio IC50
[5] = Selectivity index, ratio of IC50 for cytotoxicity against human HaCaT cells to IC50 for cytotoxicity against human SW620 cells; assay type: toxicity, cell-based; details: HaCaT cells versus SW620 cells, read-out: Ratio IC50
[6] = Selectivity index, ratio of IC50 for cytotoxicity against human HaCaT cells to IC50 for cytotoxicity against human PC-3 cells; assay type: toxicity, cell-based; details: HaCaT cells versus PC-3 cells, read-out: Ratio IC50
[7] = Selectivity index, ratio of IC50 for cytotoxicity against human HaCaT cells to IC50 for cytotoxicity against human MDA-MB-231 cells; assay type: toxicity, cell-based; details: HaCaT cells versus MDA-MB-231 cells, read-out: Ratio IC50
[8] = Selectivity index, ratio of IC50 for cytotoxicity against human HaCaT cells to IC50 for cytotoxicity against human A549 cells; assay type: toxicity, cell-based; details: HaCaT cells versus A549 cells, read-out: Ratio IC50
[9] = Selectivity index, ratio of IC50 for cytotoxicity against chinese hamster V79 cells to IC50 for cytotoxicity against human SW480 cells; assay type: toxicity, cell-based; details: V79 cells versus SW480 cells, read-out: Ratio IC50
[10] = Selectivity index, ratio of IC50 for cytotoxicity against chinese hamster V79 cells to IC50 for cytotoxicity against human SW620 cells; assay type: toxicity, cell-based; details: V79 cells versus SW620 cells, read-out: Ratio IC50
[11] = Selectivity index, ratio of IC50 for cytotoxicity against chinese hamster V79 cells to IC50 for cytotoxicity against human PC-3 cells; assay type: toxicity, cell-based; details: V79 cells versus PC-3 cells, read-out: Ratio IC50
[12] = Selectivity index, ratio of IC50 for cytotoxicity against chinese hamster V79 cells to IC50 for cytotoxicity against human MDA-MB-231 cells; assay type: toxicity, cell-based; details: V79 cells versus MDA-MB-231 cells, read-out: Ratio IC50
[13] = Selectivity index, ratio of IC50 for cytotoxicity against chinese hamster V79 cells to IC50 for cytotoxicity against human A549 cells; assay type: toxicity, cell-based; details: V79 cells versus A549 cells, read-out: Ratio IC50
Staphylococcus aureus [14] = test: Antimicrobial activity against Staphylococcus aureus NCTC 4163 incubated for 18 hrs by twofold microdilution method; assay type: functional
Staphylococcus aureus [15] = test: Antimicrobial activity against Staphylococcus aureus ATCC 25923 incubated for 18 hrs by twofold microdilution method; assay type: functional
Staphylococcus aureus [16] = test: Antimicrobial activity against Staphylococcus aureus ATCC 6538 incubated for 18 hrs by twofold microdilution method; assay type: functional
Staphylococcus aureus [17] = test: Antimicrobial activity against Staphylococcus aureus ATCC 29213 incubated for 18 hrs by twofold microdilution method; assay type: functional
[18] = tested on: Staphylococcus epidermidis; test: Antimicrobial activity against Staphylococcus epidermidis ATCC 12228 incubated for 18 hrs by twofold microdilution method; assay type: functional
[19] = tested on: Staphylococcus epidermidis; test: Antimicrobial activity against Staphylococcus epidermidis ATCC 35984 incubated for 18 hrs by twofold microdilution method; assay type: functional
Escherichia coli = test: Antimicrobial activity against Escherichia coli ATCC 25922 incubated for 18 hrs by twofold microdilution method; assay type: functional
Pseudomonas aeruginosa = test: Antimicrobial activity against Pseudomonas aeruginosa ATCC 15442 incubated for 18 hrs by twofold microdilution method; assay type: functional
Lipid bilayer [20] = test: Induction of ionic transport in azolectin bilayer membrane assessed as specific channel-like structure formation in presence of HEPES buffer by electrophysiology technique
Lipid bilayer [21] = test: Induction of ionic transport in azolectin bilayer membrane assessed as irregular disturbance in membrane permeability in presence of HEPES buffer by electrophysiology technique
Lipid bilayer [22] = test: Induction of ionic transport in azolectin bilayer membrane assessed as membrane rupture in presence of HEPES buffer by electrophysiology technique
A549 [23] = test: Induction of mitochondrial respiration in human A549 cells assessed as fold increase in oxygen consumption rate at 1 uM by Oxygraph-2K system; assay type: functional
A549 [24] = test: Induction of mitochondrial respiration in human A549 cells assessed as decrease in oxygen consumption rate at 3 uM by Oxygraph-2K system; assay type: functional, cell-based
Lipid bilayer [25] = test: Induction of current generation in azolectin bilayer membrane in presence of HEPES buffer by electrophysiology technique
Mitochondrial membrane [26] = test: Induction of mitochondrial membrane potential loss in human A549 cells assessed as green fluorescence at IC50 incubated for 48 hrs MitoTracker Green FM staining based flow cytometry analysis (reference value: 8.93 %); assay type: cell membranes
Mitochondrial membrane [27] = test: Induction of mitochondrial membrane potential loss in human MDA-MB-231 cells assessed as green fluorescence at IC50 incubated for 48 hrs MitoTracker Green FM staining based flow cytometry analysis (reference value: 8.86 %); assay type: cell membranes
Mitochondrial membrane [28] = test: Induction of mitochondrial membrane potential loss in human MDA-MB-231 cells assessed as red fluorescence at IC50 incubated for 48 hrs MitoTrackerRed CMXRos staining based flow cytometry analysis (reference value: 91.1 %); assay type: cell membranes
Mitochondrial membrane [29] = test: Induction of mitochondrial membrane potential loss in human A549 cells assessed as red fluorescence at IC50 incubated for 48 hrs MitoTrackerRed CMXRos staining based flow cytometry analysis (reference value: 91.1 %); assay type: cell membranes

Row | SMILES | IC50 (SW480) [nM] | IC50 (SW-620) [nM] | IC50 (PC-3) [nM] | IC50 (MDA-MB-231) [nM] | IC50 (A549 [1]) [nM] | IC50 at 72 h [2] [nM] | IC50 at 72 h [3] [nM] | selectivity ratio [4] | selectivity ratio [5] | selectivity ratio [6] | selectivity ratio [7] | selectivity ratio [8] | selectivity ratio [9] | selectivity ratio [10] | selectivity ratio [11] | selectivity ratio [12] | selectivity ratio [13] | MIC (Staphylococcus aureus [14]) [µg/mL] | MIC (Staphylococcus aureus [15]) [µg/mL] | MIC (Staphylococcus aureus [16]) [µg/mL] | further results
1 | CC[C@@H](C(=O)[C@@H](C)[C@@H](O)[C@H](C)[C@@H]1O[C@@H]([C@@H](CC)C(=O)OCCCC[P+](c2ccccc2)(c2ccccc2)c2ccc(N(C)C)cc2)CC[C@@H]1C)[C@H]1O[C@]2(C=C[C@@H](O)[C@]3(CC[C@@](C)([C@H]4CC[C@](O)(CC)[C@H](C)O4)O3)O2)[C@H](C)C[C@@H]1C.[Br-] | 570 | 110 | 2520 | 780 | 750 | 1280 | 370 | 2.2 | 11.6 | 0.5 | 1.6 | 1.7 | 0.6 | 3.4 | 0.1 | 0.5 | 0.5 | 2 | 4 | 2 | MIC (Staphylococcus aureus [17]): 2 µg/mL; MIC [18]: 4 µg/mL; MIC [19]: 4 µg/mL; MIC (Escherichia coli): > 256 µg/mL; MIC (Pseudomonas aeruginosa): > 256 µg/mL; Activity (Lipid bilayer [20]): inactive; Activity (Lipid bilayer [21]): inactive; Activity (Lipid bilayer [22]): inactive; fold change (FC) (A549 [23]): 2.5; Activity (A549 [24]): inactive; Activity (Lipid bilayer [25]): Dose-dependent-effect
2 | CC[C@@H](C(=O)[C@@H](C)[C@@H](O)[C@H](C)[C@@H]1O[C@@H]([C@@H](CC)C(=O)OCCCC[P+](c2ccc(C)cc2)(c2ccc(C)cc2)c2ccc(C)cc2)CC[C@@H]1C)[C@H]1O[C@]2(C=C[C@@H](O)[C@]3(CC[C@@](C)([C@H]4CC[C@](O)(CC)[C@H](C)O4)O3)O2)[C@H](C)C[C@@H]1C.[Br-] | 440 | 500 | 2210 | 830 | 810 | 1020 | 3770 | 2.3 | 2 | 0.5 | 1.2 | 1.3 | 8.6 | 7.5 | 1.7 | 4.5 | 4.7 | 2 | 4 | 2 | MIC (Staphylococcus aureus [17]): 4 µg/mL; MIC [18]: 4 µg/mL; MIC [19]: 4 µg/mL; MIC (Escherichia coli): > 256 µg/mL; MIC (Pseudomonas aeruginosa): > 256 µg/mL; Activity (Lipid bilayer [20]): inactive; Activity (Lipid bilayer [21]): inactive; Activity (Lipid bilayer [22]): inactive; fold change (FC) (A549 [23]): 2.5; Activity (A549 [24]): inactive; Activity (Lipid bilayer [25]): Dose-dependent-effect
3 | CC[C@@H](C(=O)[C@@H](C)[C@@H](O)[C@H](C)[C@@H]1O[C@@H]([C@@H](CC)C(=O)OCCCCCC[P+](c2ccc(C)cc2)(c2ccc(C)cc2)c2ccc(C)cc2)CC[C@@H]1C)[C@H]1O[C@]2(C=C[C@@H](O)[C@]3(CC[C@@](C)([C@H]4CC[C@](O)(CC)[C@H](C)O4)O3)O2)[C@H](C)C[C@@H]1C.[Br-] | 610 | 720 | 1580 | 830 | 980 | 1050 | 670 | 1.7 | 1.5 | 0.7 | 1.3 | 1.1 | 1.1 | 0.9 | 0.4 | 0.8 | 0.7 | 8 | 16 | 8 | MIC (Staphylococcus aureus [17]): 8 µg/mL; MIC [18]: 16 µg/mL; MIC [19]: 16 µg/mL; MIC (Escherichia coli): > 256 µg/mL; MIC (Pseudomonas aeruginosa): > 256 µg/mL
4 | N#CC(C#N)=NNc1cccc(Cl)c1 | – | – | – | – | – | – | – | – | – | – | – | – | – | – | – | – | – | – | – | – | Activity (Mitochondrial membrane [26]): 79.6%; Activity (Mitochondrial membrane [27]): 87.8%; Activity (Mitochondrial membrane [28]): 12.3%; Activity (Mitochondrial membrane [29]): 20.2%
5 | CC[C@@H](C(=O)[C@@H](C)[C@@H](O)[C@H](C)[C@@H]1O[C@@H]([C@@H](CC)C(=O)OCCCCCC[P+](c2ccccc2)(c2ccccc2)c2ccccc2)CC[C@@H]1C)[C@H]1O[C@]2(C=C[C@@H](O)[C@]3(CC[C@@](C)([C@H]4CC[C@](O)(CC)[C@H](C)O4)O3)O2)[C@H](C)C[C@@H]1C.[Br-] | 710 | 2570 | 1850 | 2650 | 720 | 780 | 630 | 1.1 | 0.3 | 0.4 | 0.3 | 1.1 | 0.9 | 0.2 | 0.3 | 0.2 | 0.9 | 2 | 2 | 2 | MIC (Staphylococcus aureus [17]): 2 µg/mL; MIC [18]: 2 µg/mL; MIC [19]: 2 µg/mL; MIC (Escherichia coli): 256 µg/mL; MIC (Pseudomonas aeruginosa): 256 µg/mL
